For data set [1], the system named is WNT signaling. The conditions noted are these: read-out: 7dF3 IC50; Figure 1; cited from earlier work.
The subject of another data set is CDK19. The settings on record: read-out: CDK19 IC50; Figure 1; cited from earlier work.
Data set [2] is described as follows: in vitro. The conditions noted are these: human, Caco-2.
The nature of data set [3]: in vitro. The settings on record: mouse, microsomes.
The conditions of data set [4]: mouse.
Data set [5] can be described thus: in vitro. The settings on record: rat, microsomes.
Data set [6] has as its target T1, aldehyde oxidase (Homo sapiens, UniProt Q06278). The conditions noted are these: for % of parent compd remaining after 45 min: human, cytosol, 0.75 h, 1 µM.
Data set [7] in a line: in vitro. The settings on record: human, microsomes.
The target of data set [8] is T1, aldehyde oxidase. Put plainly: in vitro. The conditions noted are these: cytosol.
The conditions of data set [9]: human.
In data set [10] the test system is WNT signaling. The settings on record: for fold less active in the cell-based assay: relative to 4; for drop off in the cell-based assay: cell-based versus CDK8 affinity.
Data set [11] concerns WNT signaling. Briefly: cells. The settings on record: 7dF3, read-out: 7dF3 IC50.
In a further data set the test system is Caco-2. The conditions noted are these: human.
For the next data set, the target named is CDK8 (Homo sapiens, UniProt P49336). It is filed as binding. The settings on record: versus parent analogue.
Chain of CDK8 (P49336 whole entry): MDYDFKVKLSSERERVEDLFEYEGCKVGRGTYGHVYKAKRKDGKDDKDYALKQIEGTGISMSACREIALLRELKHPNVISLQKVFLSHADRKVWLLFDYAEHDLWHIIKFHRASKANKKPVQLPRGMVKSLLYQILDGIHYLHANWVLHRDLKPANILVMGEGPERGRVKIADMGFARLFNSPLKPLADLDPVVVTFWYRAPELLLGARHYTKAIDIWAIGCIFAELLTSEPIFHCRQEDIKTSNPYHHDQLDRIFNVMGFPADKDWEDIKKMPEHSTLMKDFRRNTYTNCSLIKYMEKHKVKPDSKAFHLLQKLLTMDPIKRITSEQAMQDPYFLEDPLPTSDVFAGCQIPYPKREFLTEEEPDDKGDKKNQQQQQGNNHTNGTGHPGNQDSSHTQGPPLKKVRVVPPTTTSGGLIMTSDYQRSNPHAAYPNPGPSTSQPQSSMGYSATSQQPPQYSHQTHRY
Chain of CDK8 (P24863 whole entry, further chain): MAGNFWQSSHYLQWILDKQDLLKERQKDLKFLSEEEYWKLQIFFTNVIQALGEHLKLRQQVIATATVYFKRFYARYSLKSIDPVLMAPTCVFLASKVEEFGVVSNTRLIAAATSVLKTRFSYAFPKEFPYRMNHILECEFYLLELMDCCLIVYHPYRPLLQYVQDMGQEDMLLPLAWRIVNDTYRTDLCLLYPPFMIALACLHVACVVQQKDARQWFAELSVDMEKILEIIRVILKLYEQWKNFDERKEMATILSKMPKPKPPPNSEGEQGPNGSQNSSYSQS

SMILES strings stand for the structures. Read-outs that look alike come from different tables or passages of the source.

T1 sequence (Q06278 whole entry): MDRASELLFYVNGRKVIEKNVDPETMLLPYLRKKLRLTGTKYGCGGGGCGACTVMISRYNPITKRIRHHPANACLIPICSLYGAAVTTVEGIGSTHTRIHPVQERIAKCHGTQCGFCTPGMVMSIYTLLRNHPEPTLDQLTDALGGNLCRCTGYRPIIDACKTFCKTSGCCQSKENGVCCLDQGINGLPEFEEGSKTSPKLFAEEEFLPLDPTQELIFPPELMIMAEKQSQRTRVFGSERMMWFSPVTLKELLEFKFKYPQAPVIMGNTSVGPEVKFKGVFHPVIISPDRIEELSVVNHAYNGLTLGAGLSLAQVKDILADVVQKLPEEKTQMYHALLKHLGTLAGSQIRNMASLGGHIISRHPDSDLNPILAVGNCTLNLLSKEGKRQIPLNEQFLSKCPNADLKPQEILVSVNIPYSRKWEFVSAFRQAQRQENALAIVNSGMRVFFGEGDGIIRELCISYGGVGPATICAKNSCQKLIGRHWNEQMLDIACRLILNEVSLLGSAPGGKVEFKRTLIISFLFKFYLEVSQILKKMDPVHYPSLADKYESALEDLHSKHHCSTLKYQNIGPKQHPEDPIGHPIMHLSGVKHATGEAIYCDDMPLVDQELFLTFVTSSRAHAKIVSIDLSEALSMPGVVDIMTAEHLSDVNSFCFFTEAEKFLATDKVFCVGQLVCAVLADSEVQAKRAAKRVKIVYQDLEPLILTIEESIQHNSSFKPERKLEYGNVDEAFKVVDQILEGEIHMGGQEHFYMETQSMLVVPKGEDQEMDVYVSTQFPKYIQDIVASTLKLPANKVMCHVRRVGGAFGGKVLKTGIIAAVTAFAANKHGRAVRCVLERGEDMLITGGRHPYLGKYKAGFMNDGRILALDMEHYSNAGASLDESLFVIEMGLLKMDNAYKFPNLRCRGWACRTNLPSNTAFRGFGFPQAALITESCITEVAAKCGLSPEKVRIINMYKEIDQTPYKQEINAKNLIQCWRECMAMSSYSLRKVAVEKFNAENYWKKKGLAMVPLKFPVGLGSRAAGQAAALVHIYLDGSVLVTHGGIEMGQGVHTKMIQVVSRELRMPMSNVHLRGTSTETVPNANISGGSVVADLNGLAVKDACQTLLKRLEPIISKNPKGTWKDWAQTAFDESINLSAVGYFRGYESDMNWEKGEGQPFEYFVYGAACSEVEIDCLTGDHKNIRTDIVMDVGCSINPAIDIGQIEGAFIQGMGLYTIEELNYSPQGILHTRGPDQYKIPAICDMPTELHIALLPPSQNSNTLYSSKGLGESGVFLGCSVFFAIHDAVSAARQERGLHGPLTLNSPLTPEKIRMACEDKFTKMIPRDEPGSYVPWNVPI

`Cn1cc(-c2ccc(-c3cncc(Cl)c3N3CCC4(CCNC4=O)CC3)cc2)cn1` [Compound 1]: the IC50 (as a rule, the concentration that inhibits the measured activity by half) in the data set on WNT signaling [1] is 5 ± 1 nM; in the data set with CDK19 it was 6 ± 1 nM.
For the molecule `Cn1ncc2cc(-c3cnc(N)c(Cl)c3N3CCC4(CCNC4=O)CC3)ccc21` [Compound 2], the 50% inhibitory concentration (IC50) was 11.8 ± 17.9 nM with WNT signaling [1] and 2.6 ± 0.4 nM with CDK19.
Take `CNC(=O)c1ccc2cncc(-c3ccc4c(c3)CS(=O)(=O)N4C)c2n1` [Compound 7]: in “in vitro [2]”, the Papp A→B (commonly how fast a substance crosses the layer from the apical side) came to 38.3 ×10⁻⁶ cm/s. Moreover, the efflux ratio – broadly, the permeability from basolateral to apical divided by that in the opposite direction, in the common usage – in the data set “in vitro [2]” amounted to 1.02. Besides, the microsomal CLint (in general, the capacity of the preparation to metabolise the compound, expressed as a volume cleared per time) at 1 µM in “in vitro [3]” worked out at 76 µL/min/mg; in “in vitro [5]”, 142 µL/min/mg; in “in vitro [7]”, 15 µL/min/mg. In data set [4] (Balb/C, in vivo), this molecule showed an F of 16%. Further, the volume of distribution (Vss) – broadly, a proportionality between amount in the body and measured concentration, not a real space – in data set [4] (Balb/C, in vivo) came out at 2.7 L/kg. Moreover, the in vivo clearance result in [4] is “exceeded liver blood flow”. Besides, the “AO substrate (Enzyme assay)” value at aldehyde oxidase [6] is recorded as “Yes”. Also, the CLint scaled (as a rule, a measure of how fast metabolising enzymes remove a compound, apart from limits set by blood flow) at 1 µM on aldehyde oxidase [8] turned out to be 598 mL/min/kg.
Take `CNC(=O)c1ccc2cncc(-c3ccc4c(c3)CS(=O)(=O)N4)c2n1` [Compound 8]: in “in vitro [2]”, the Papp A→B was 5.94 ×10⁻⁶ cm/s and the efflux ratio turned out to be 7.26. The main metabolite result in [9] was “oxidation to give the C5-OH compound 37 as the main metabolite”. This molecule also came in with a microsomal CLint at 1 µM in the data set “in vitro [3]” of 23 µL/min/mg. In data set [4], the in vivo clearance result is listed as “exceeded liver blood flow”. Further, in [4] (in vivo), the Cl result is given as “Not measurable”, the F entry is “Not measurable” and the Vd result is recorded as “Not measurable”. In the data set “in vitro [5]”, this molecule registered a microsomal CLint at 1 µM of 21 µL/min/mg. Further, the “% of parent compd remaining after 45 min” value at aldehyde oxidase [6] came out at 20%. This molecule also displayed a microsomal CLint in “in vitro [7]” of less than 10 µL/min/mg.
Regarding `CC(=O)Nc1ccc2cncc(-c3ccc(-c4cnn(C)c4)cc3)c2n1` [Compound 18], the microsomal CLint at 1 µM in the data set “in vitro [3]” is 168 µL/min/mg; in “in vitro [5]”, 247 µL/min/mg; in the data set “in vitro [7]” it was 26 µL/min/mg. The “fold less active in the cell-based assay” value in the data set with WNT signaling [10] is reported as 10 fold.
Turning to `Cn1cc(-c2ccc(-c3cncc4ccc(N5CCCC5=O)nc34)cc2)cn1` [Compound 19], the microsomal CLint at 1 µM came out at 392 µL/min/mg in “in vitro [3]”, 253 µL/min/mg in the data set “in vitro [5]” and 143 µL/min/mg in the data set “in vitro [7]”. Besides, in the data set on WNT signaling [10], the “fold less active in the cell-based assay” value was 10 fold. On aldehyde oxidase [8], the CLint scaled at 1 µM came out at 418 mL/min/kg.
For the molecule `Cn1cc(-c2ccc(-c3cncc4ccc(-c5ncco5)nc34)cc2)cn1` [Compound 25], the figures for the microsomal CLint at 1 µM in the data set “in vitro [3]”, in the data set “in vitro [5]” and in the data set “in vitro [7]” were 200 µL/min/mg, 796 µL/min/mg and 48 µL/min/mg, respectively. Also, on aldehyde oxidase [6], the “% of parent compd remaining after 45 min” value is 0%. For the same molecule, the CLint scaled at 1 µM at aldehyde oxidase [8] was found to be 367 mL/min/kg.
As for `Cn1cc(-c2ccc(-c3cncc4ccc(-c5nccn5C)nc34)cc2)cn1` [Compound 26], the microsomal CLint at 1 µM in “in vitro [3]” was 661 µL/min/mg; in the data set “in vitro [7]” it was 335 µL/min/mg. This molecule also showed a microsomal CLint in “in vitro [5]” greater than 1000 µL/min/mg. For the same molecule, at aldehyde oxidase [6], the “AO substrate (Enzyme assay)” value is “Yes”. This molecule also returned an intrinsic metabolic clearance (CLint scaled) at 1 µM at aldehyde oxidase [8] greater than 1000 mL/min/kg.
Turning to `Cn1cc(-c2ccc(-c3cncc4ccc(N5CCCS5(=O)=O)cc34)cc2)cn1` [Compound 35], the values for the intrinsic clearance (microsomal CLint) at 1 µM in “in vitro [3]”, in the data set “in vitro [5]” and in “in vitro [7]” were 213 µL/min/mg, 81 µL/min/mg and 54 µL/min/mg, respectively. The “drop off in the cell-based assay” value with WNT signaling [10] was determined as 7 fold.
The matching figures for `Cn1cc(-c2ccc(-c3cncc4ccc(S(N)(=O)=O)cc34)cc2)cn1` [Compound 36]: 125 µL/min/mg, 220 µL/min/mg, 47 µL/min/mg and 12 fold.
In turn, `CNC(=O)c1ccc2c(N)ncc(-c3ccc4c(c3)CS(=O)(=O)N4C)c2n1` [Compound 48] showed a microsomal CLint in “in vitro [3]” of 94 µL/min/mg. For the same molecule, the IC50 in the data set on WNT signaling [11] is 9.3 ± 2.3 nM. In addition, in data set [4] (Balb/C, in vivo), the Cl was 213 mL/min/kg, the F is 29% and the Vss turned out to be 5.64 L/kg. In the data set “in vitro [5]”, this molecule displayed an intrinsic clearance (microsomal CLint) of 24 µL/min/mg. At aldehyde oxidase [6], the “AO substrate (Enzyme assay)” value is “No”. This molecule also displayed a microsomal CLint in “in vitro [7]” of 18 µL/min/mg. Besides, the CLint scaled at 1 µM on aldehyde oxidase [8] was 15 mL/min/kg.
Turning to `Cn1cc(-c2ccc(-c3cnc(N)c4ccc(C(=O)N5CCNCC5)nc34)cc2)cn1` [Compound 49], the intrinsic metabolic clearance (microsomal CLint) at 1 µM in “in vitro [3]” is 36 µL/min/mg. For the same molecule, in data set [4] (Balb/C, in vivo), the Cl is 58.5 mL/min/kg, the F was less than 5% and the Vss came out at 2.49 L/kg. Further, the microsomal CLint in the data set “in vitro [5]” is less than 10 µL/min/mg. The same molecule came in with a microsomal CLint in “in vitro [7]” of less than 10 µL/min/mg. For the same molecule, in the data set on Caco-2, the “Caco-2 ER” value is listed as 145 and the “Caco-2 PappA-B” value is given as 0.96 × 10^–6 cm/s. This molecule also came in with a CLint scaled at 1 µM at aldehyde oxidase [8] of less than 4.2 mL/min/kg.
Take `Cn1cc(-c2ccc(-c3cnc(N)c4ccc(-c5nccn5C)nc34)cc2)cn1` [Compound 57]: on CDK8, the “drop in CDK8 affinity” value is 225 fold.

The record behind these values is article PMC4904262 (ACS Medicinal Chemistry Letters, 2016).
